Measured values taken from patent US4448781A, “N-Benzyl-imidazoles as selective inhibitors of the thromboxane synthetase enzyme” (Pfizer Inc., priority 1979, dated 1984).
Counter-ions that a name gives are not always drawn.

Tests used:
cyclo-oxygenase = target: T1, cyclo-oxygenase (Ovis aries, UniProt P05979); assay: Cyclo-oxygenase inhibition (ram seminal vesicle microsomes, rabbit aorta strip bioassay); assay type: biochemical; settings: 5 min pre-incubation, isometric tension of rabbit aorta, read-out: Molar concentration causing 50% inhibition of (2) cyclo-oxygenase
T1 construct: Ram seminal vesicle microsomes; from tissue; host or cells: ram seminal vesicle (microsomes)
T1 sequence (P05979 25-600): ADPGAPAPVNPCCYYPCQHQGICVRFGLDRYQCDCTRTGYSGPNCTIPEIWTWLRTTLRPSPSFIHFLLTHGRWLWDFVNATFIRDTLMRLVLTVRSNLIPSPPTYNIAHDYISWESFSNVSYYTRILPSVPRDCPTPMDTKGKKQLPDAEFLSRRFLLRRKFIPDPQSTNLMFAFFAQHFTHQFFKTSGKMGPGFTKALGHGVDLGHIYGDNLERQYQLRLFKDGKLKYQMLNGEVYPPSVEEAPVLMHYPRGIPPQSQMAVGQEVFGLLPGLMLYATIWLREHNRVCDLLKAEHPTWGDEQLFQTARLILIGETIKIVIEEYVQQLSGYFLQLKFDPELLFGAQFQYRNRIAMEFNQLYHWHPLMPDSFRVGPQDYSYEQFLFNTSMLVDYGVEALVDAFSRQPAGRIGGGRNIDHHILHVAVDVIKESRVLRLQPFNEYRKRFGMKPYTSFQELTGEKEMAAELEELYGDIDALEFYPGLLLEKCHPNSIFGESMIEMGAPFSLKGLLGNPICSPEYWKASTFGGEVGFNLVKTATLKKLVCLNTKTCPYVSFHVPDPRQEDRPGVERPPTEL
Experimental: Ram seminal vesicle microsomes (Biochemistry, 1971, 10, 2372) are incubated with arachidonic acid (100 μM: 1 min.: 22°) to produce PGH2 and aliquots of the reaction mixture injected into a stream of Krebs-bicarbonate at 37° C. (containing a mixture of antagonists (Nature, […], 218, 1135) and indomethacin (Brit. J. Pharmacol., 1972, 45, 451) which is superfusing a spirally-cut rabbit aorta strip (Nature, 1969, 223, 29). The ability of a compound to inhibit the enzyme is measured by comparing the increases in isometric tension produced by PGH2 in the absence of the test compound, and following pre-incubation of the enzyme with the test compound for 5 minutes.
(§1) The results of these tests are shown in the following Table, which gives the molar concentration of each compound which caused a 50% change in the effect of the relevant enzyme on isometric tension, i.e. caused a 50% inhibition of the action of that enzyme.

thromboxane synthetase = target: T2, thromboxane synthetase (Homo sapiens, UniProt P24557); assay: Thromboxane A2 (TxA2) synthetase inhibition (indomethacin pre-treated human platelet microsomes, rabbit aorta superfusion bioassay); assay type: biochemical; settings: 5 min pre-incubation, isometric tension of rabbit aorta, read-out: Molar concentration causing 50% inhibition of (1) thromboxane synthetase
T2 construct: Indomethacin pre-treated human platelet microsomes; from tissue; host or cells: human blood platelets (microsomes)
T2 sequence (P24557 1-533): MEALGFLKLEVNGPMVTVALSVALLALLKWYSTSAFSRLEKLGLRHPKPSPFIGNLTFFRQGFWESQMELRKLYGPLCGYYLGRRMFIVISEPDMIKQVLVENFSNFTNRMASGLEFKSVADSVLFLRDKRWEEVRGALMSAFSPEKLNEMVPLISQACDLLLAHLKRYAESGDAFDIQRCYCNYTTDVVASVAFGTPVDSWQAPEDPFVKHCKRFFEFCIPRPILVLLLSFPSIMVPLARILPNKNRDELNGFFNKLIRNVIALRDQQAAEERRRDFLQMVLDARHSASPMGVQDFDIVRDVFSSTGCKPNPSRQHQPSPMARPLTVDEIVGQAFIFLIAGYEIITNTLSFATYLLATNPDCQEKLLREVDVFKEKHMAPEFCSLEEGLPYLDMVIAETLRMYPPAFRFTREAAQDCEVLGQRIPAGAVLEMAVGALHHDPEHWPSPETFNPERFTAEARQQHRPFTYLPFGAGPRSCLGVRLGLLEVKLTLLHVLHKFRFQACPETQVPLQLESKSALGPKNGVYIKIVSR
Experimental: 3. Thromboxane A2 (TxA2) Synthetase
Indomethacin pre-treated human platelet microsomes (Science 1976, 193, 163) are incubated (2 min.: 0° C.) with PGH2 (produced as in 1) and aliquots of the reaction mixture superfused over two rabbit aorta spirals which are separated by a delay coil (2 min.). The latter is required to allow the selective decay of the more unstable thromboxane A2 (Proc. Nat. Acad. Sci., 1975, 72, 2994) thereby enabling the separate measurement of increased isometric tension due to the TxA2 formed and the PGH2 remaining. The test compound is pre-incubated with the enzyme for 5 minutes, and its ability to inhibit the thromboxane synthetase enzyme is measured as its reduction of the TxA2 component of the isometric tension.
as §1

prostacyclin synthetase [1] = target: T3, prostacyclin synthetase (Sus scrofa, UniProt A0A5G2QT35); assay: Prostacyclin (PGI2) synthetase inhibition (pig aorta microsomes, rabbit aorta bioassay); assay type: biochemical; settings: 5 min pre-incubation, isometric tension of rabbit aorta, read-out: Molar concentration causing 50% inhibition of (3) prostacyclin synthetase
T3 construct: Pig aorta microsomes; from tissue; host or cells: pig aorta (microsomes)
T3 sequence (A0A5G2QT35 1-497): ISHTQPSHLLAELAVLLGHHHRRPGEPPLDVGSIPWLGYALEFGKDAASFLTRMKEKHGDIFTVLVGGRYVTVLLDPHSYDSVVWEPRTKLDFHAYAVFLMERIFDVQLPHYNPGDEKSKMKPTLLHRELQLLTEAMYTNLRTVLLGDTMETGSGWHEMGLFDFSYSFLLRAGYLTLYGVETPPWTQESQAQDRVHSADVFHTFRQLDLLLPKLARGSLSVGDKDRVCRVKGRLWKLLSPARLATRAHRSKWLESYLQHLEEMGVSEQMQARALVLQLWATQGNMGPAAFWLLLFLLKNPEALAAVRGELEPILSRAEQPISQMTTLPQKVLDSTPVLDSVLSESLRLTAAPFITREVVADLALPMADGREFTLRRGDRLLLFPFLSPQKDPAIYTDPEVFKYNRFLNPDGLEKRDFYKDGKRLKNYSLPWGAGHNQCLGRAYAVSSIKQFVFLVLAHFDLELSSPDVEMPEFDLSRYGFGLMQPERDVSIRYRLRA
Experimental: 2. Prostacyclin (PGI2) Synthetase
Pig aorta microsomes (Nature, 1976, 263, 663) are incubated (30 sec.: 22° C.) with PGH2 produced as in 1) and aliquots bio-assayed as in 1. […] The test compound is then pre-incubated with the enzyme for 5 minutes, and its ability to prevent the decrease in tension is measured.
as §1

cyclo-oxygenase enzyme = settings: cited from earlier work
[2] = system: arachidonic acid induced death in rabbits; settings: rabbit, intravenous injection of arachidonic acid; cited from earlier work
[3] = system: human blood platelet aggregation; settings: human blood platelets; cited from earlier work
[4] = system: prostacyclin and thromboxane A2 levels; settings: cited from earlier work
prostacyclin synthetase [5] = target: T3, prostacyclin synthetase; settings: pre-incubation of the enzyme; Prostaglandins, 1976, 12, 715; cited from earlier work
aggregation of platelets = settings: rats, abdominal aorta, in vivo; cited from earlier work

Row | IC50 (cyclo-oxygenase) [nM] | IC50 (thromboxane synthetase) [nM] | Molecule | other results
1 | > 100000 | 8.2 | Cc1ccc(OCC(=O)O)c(Cn2ccnc2)c1 [Example 2, 2-(1-Imidazolylmethyl)-4-methyl-phenoxyacetic acid hydrochloride hemihydrate] | IC50 (prostacyclin synthetase [1]): > 100000 nM
2 | > 100000 | 46 | NC(=O)COc1ccc(Cn2ccnc2)cc1 [Example 8, 4-(1-Imidazolylmethyl)phenoxyacetamide] | –
3 | > 100000 | 47 | Cc1ccc(OCc2ccc(C(=O)O)cc2)c(Cn2ccnc2)c1 [Example 5, 4-[2-(1-Imidazolylmethyl)-4-methyl-phenoxymethyl]benzoic acid] | –

Continued, molecule first:

Row | Molecule | IC50 (cyclo-oxygenase) [nM] | IC50 (thromboxane synthetase) [nM] | other results
4 | Cc1ccc(OCCCC(N)=O)c(Cn2ccnc2)c1 [Example 4, 4-[2-(1-Imidazolylmethyl)-4-methyl-phenoxy]butyramide] | > 100000 | 2.4 | –
5 | CC(=O)Oc1ccccc1C(=O)O [Aspirin] | – | – | inhibition of the cyclo-oxygenase enzyme (in words) (cyclo-oxygenase enzyme): inhibit the cyclo-oxygenase enzyme; protection from the lethal effect of intravenous arachidonic acid [2]: protect the rabbit from the lethal effect of the injection; inhibitory activity in vitro against a variety of aggregating agents [3]: show inhibitory activity in vitro against a variety of aggregating agents; effect on prostacyclin and thromboxane A2 levels (in words) [4]: reduce both the prostacyclin and thromboxane A2 levels
6 | 15-hydroperoxy-arachidonic acid | – | – | prevention of the decrease in PGH2-induced tension (PGI2 synthetase inhibition, in words) (prostacyclin synthetase [5]): prevented completely
7 | O=C1C(CC[S+]([O-])c2ccccc2)C(=O)N(c2ccccc2)N1c1ccccc1 (stereo not drawn) [sulphinpyrazone] | – | – | protection from the lethal effect of intravenous arachidonic acid [2]: protect the rabbit from the lethal effect of the injection; inhibitory activity in vitro against a variety of aggregating agents [3]: show inhibitory activity in vitro against a variety of aggregating agents; prevention of the aggregation of platelets in an extra corporeal loop (aggregation of platelets): prevent the aggregation of platelets
8 | O=C(O)COc1cccc(Cn2ccnc2)c1 [Example 24, 3-(1-Imidazolylmethyl)phenoxyacetic acid hydrochloride] | – | 4.5 | –
